Assay results from patent US7737182B2, “Pharmaceuticals for xerosis” (Taisho Pharmaceutical Co., Ltd., priority 2001, dated 2010).

Assays:
prostaglandin D receptor = molecular target: T1, prostaglandin D receptor (Homo sapiens, UniProt Q13258); test: Antagonism by BW A868C of the suppression of ADP-induced human platelet aggregation; assay type: cell-based; conditions: human PRP, ADP 3 μmol/L
T1 construct: separate the supernatant (PRP, or platelet-rich plasma); endogenous in cells; host or cells: human platelets (platelet-rich plasma from healthy male donors)
T1 sequence (Q13258 1-359): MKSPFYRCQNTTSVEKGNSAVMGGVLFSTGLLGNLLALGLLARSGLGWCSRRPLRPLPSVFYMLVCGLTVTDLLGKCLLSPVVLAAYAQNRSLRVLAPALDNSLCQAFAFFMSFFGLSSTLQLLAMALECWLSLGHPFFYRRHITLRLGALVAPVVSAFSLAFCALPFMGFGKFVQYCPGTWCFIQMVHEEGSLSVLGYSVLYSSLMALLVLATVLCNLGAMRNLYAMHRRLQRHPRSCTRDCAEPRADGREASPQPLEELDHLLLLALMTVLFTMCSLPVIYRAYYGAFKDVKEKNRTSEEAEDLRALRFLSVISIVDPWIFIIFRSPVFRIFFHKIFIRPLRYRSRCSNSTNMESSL
Procedure: The prostaglandin D receptor selective antagonist used in the test was ((+/−)-3-benzyl-5-(6-carboxyhexyl)-1-(2-cyclohexyl-2-hydroxyethylamino)-hydantoin) (hereunder designated BW A868C) (Sigma-Aldrich Japan K.K.)
BW A868C was diluted with ethanol to final concentrations of 0.03 μmol/L, 0.1 μmol/L, 0.3 μmol/L, 1 μmol/L, 3 μmol/L and 10 μmol/L.
Compound No. 7 and PGD2 were diluted with ethanol to 287 nmol/L and 300 nmol/L, respectively, for subsequent use.
Blood was taken from the cubital veins of human healthy males and sampled into a tube containing 3.13% sodium citrate. The blood sample was centrifuged at 1,000 rpm for 10 minutes at 20° C. to separate the supernatant (PRP, or platelet-rich plasma) and the residue was further centrifuged at 3,000 rpm for 10 minutes at 20° C. to separate the supernatant (PPP, or platelet-poor plasma). The platelet count of PRP was appropriately diluted with PPP to 30×10^4 platelets/μL for subsequent use.
Platelet aggregation was measured with a platelet aggregation measuring instrument (PAM-8C; MC MEDICAL Co., LTD.) by the Born method (Nature, vol. 194, p. 927, 1962). A portion (273 μL) of PRP (for the BW A868C groups, 1 μL of BW A868C was added at varying concentrations) was preincubated at 37° C. for 3 minutes with stirring at 1,000 rpm. After the preincubation, 1 μL of ethanol or a test substance (compound No. 7: final concentration at 95.7 nmol/L; PGD2: final concentration at 1000 nmol/L) was added and the mixture was incubated at 37° C. for 3 minutes with stirring at 1000 rpm. After the incubation, 25 μL of ADP (final concentration at 3 μmol/L) was added to induce platelet aggregation and a maximum percent aggregation for 5 minutes was measured.

[1] = test system: NC/Nga mice manifesting atopic dermatitis; test: Spontaneous itch-evoked scratching behavior of NC mice (Test Example 1); assay type: in vivo; conditions: for Inhibition rate (%) (percent itch suppression): 0.2 ml/mouse on dorsal skin, 24-hr scratching counts before vs after; for Efficacy (significance, paired t-test): scratching counts before vs after application
Procedure: About 20-week old NC/Nga mice each weighing about 30 g and manifesting atopic dermatitis were purchased from SLC and subjected to the following experiment. A magnet was buried in both hind paws of each mouse and by detecting its magnetism, the movement of the paws was measured with an itch measuring system (product of Neuroscience; when the mouse makes an action, the magnets move accordingly and a current flows through the coil; the moving magnets cause a change in the current, which is detected, measured and analyzed). Among the scratching actions, those lasting 1.5 seconds or longer were considered itch-evoked and their number was counted continuously. […] The subsequent 24-hr itch-evoked scratching behavior was measured and the number of itch-evoked scratchings after drug administration was compared with the initial count. The experimental data was processed to calculate the percent itch suppression on the basis of the total 24-hr itch-evoked scratching counts before and after drug application. For significance testing, the itch-evoked scratching counts that were obtained before and after drug application from individual animals in each group treated with a specific concentration of drug were processed by a paired t-test. Percent itch suppression (%)=(itch-evoked scratching count before drug application−itch-evoked scratching count after drug application)×100/itch-evoked scratching count before drug application (Results)

BALB/c male mice [2] = test: Mouse skin's barrier function, treatment test, TEWL (Test Example 5); assay type: in vivo; conditions: barrier destroyed with acetone/diethyl ether; 0.01% in ethanol, 100 μL, once a day for 2 days
Procedure: Six-week-old BALB/c male mice in groups of eight were shaven in a rostral dorsolateral area of 4 cm^2 (2 cm×2 cm) with electric clippers and the shaven area was covered for 60 seconds with an absorbent cotton (2 cm×2 cm) impregnated with a 1:1 liquid mixture of acetone and diethyl ether. This treatment for destroying the skin's barrier function was performed for 3 consecutive days on once-a-day basis. Starting on the day next to completion of the treatment for barrier destruction at day 3, a solvent (ethanol, 100 μL) or a drug dissolved in the solvent (compound No. 7, PGD2, PGF2α, or PGE1, all being at 0.01% in an amount of 100 μL) was applied to the barrier destroyed site for 2 days on once-a-day basis. On the day next to the second application of the solvent or drug, the transepidermal water loss (TEWL) at the same site was measured with Tewameter (TM210 of Courage & Khazawa, Germany) to evaluate the drug's action.

BALB/c male mice [3] = test: Mouse skin's barrier function, preventive test, TEWL (Test Example 6); assay type: in vivo; conditions: cohabitation with dermatitic NC/Nga mice; 0.01% in ethanol, 100 μL, once a day for 7 days
Procedure: Six-week-old BALB/c male mice in groups of six were shaven in a rostral dorsolateral area of 4 cm^2 (2 cm×2 cm) with electric clippers and kept in the same cage as NC/Nga mice that had developed dermatitis. From the day next to the start of cohabitation, a solvent (ethanol, 100 μL) or a drug dissolved in the solvent (compound No. 7, PGD2, PGF2α, or PGE1, all being at 0.01% in an amount of 100 μL) was applied to the shaven site for 7 days on once-a-day basis.
On the day next to the seventh application of the solvent or drug, the transepidermal water loss (TEWL) at the same site was measured with Tewameter (TM210 of Courage & Khazawa, Germany) to evaluate the drug's action, with the solvent-applied group being used as the control group.

[4] = test system: NC mice induced to manifest dermatitis; test: Dermatitis score in dermatitis manifesting NC mouse models (Test Example 2); assay type: in vivo; conditions: 0.1% in 100% ethanol, 200 μl on dorsal back, seven times a week for 4 weeks
Procedure: By suitably modifying a method known to the skilled artisan (Jpn. J. Pharmacol. 76, 175-183 (1998) Jun Hiroi, et al. Effects of Tacrolimus Hydrate (FK-506) Ointment on Spontaneous Dermatitis in NC/Nga Mice), the following test was conducted in order to confirm the antipruritic effect of compounds of the invention.
Animals: Four-week old SPF NC mice (male) were purchased from Japan SLC; right after their arrival, the SPF NC mice were kept together with dermatitis manifesting male NC mice (older than 20 weeks) for 2 weeks under the following conditions so as to induce itch-evoked scratching behavior. […]
Drug administration: To the dorsal backs of the 20-wk NC mice that were induced to manifest dermatitis as the result of cohabitation with the spontaneous dermatitis manifesting NC mice, 100% ethanol, compound No. 7 (0.01%) dissolved in 100% ethanol or tacrolimus (0.1%) dissolved in 100% ethanol was applied from an Eppendorf pipette in 200-μl doses seven times a week for a period of 4 weeks. […] Dermatitis score: Dermatitic symptoms were observed and measured once a week. […]

[5] = concentration 0.00001% in 100% ethanol

In the case of `O=C(O)CCCCCCC1C(=O)N(Cc2ccccc2)C(=O)N1NCC(O)C1CCCCC1` (racemic) [BW A868C, ((+/−)-3-benzyl-5-(6-carboxyhexyl)-1-(2-cyclohexyl-2-hydroxyethylamino)-hydantoin)], the “concentration of BW A868C with significant antagonism of the platelet aggregation suppressing action of PGD2” value (prostaglandin D receptor; PGD2 at 1000 nmol/L) is reported as ≥ 0.3 µmol/L and the “concentration of BW A868C with significant antagonism of the platelet aggregation suppressing action of compound No. 7” value (prostaglandin D receptor; compound No. 7 at 95.7 nmol/L) is reported as ≥ 0.1 µmol/L.

With `COC(=O)CSCCCC[C@@H]1[C@@H](C#C[C@@H](O)C2CCCCC2)[C@H](O)C[C@H]1Cl` [Compound No. 6] the “Inhibition rate (%) (percent itch suppression)” value ([1]; concentration 0.0001% in 100% ethanol) was 32.26% and the “Efficacy (significance, paired t-test)” value ([1]; concentration 0.0001%) was “* (*: P < 0.05)”.

For `O=C(O)C#CCCCC[C@@H]1[C@@H](C#C[C@@H](O)C2CCCCC2)[C@H](O)C[C@H]1Cl` [Compound No. 15], the “Inhibition rate (%) (percent itch suppression)” value ([1]; concentration 0.000001% in 100% ethanol) was 34.61% and the “Efficacy (significance, paired t-test)” value ([1]; concentration 0.000001%) was “* (*: P < 0.05)”.

In the case of `O=C(O)CSCCSC[C@@H]1[C@@H](C#C[C@@H](O)C2CCCCC2)[C@H](O)C[C@H]1Cl` [Compound No. 25], the “Inhibition rate (%) (percent itch suppression)” value [1, 5] is reported as 21.51% and the “Efficacy (significance, paired t-test)” value ([1]; concentration 0.00001%) is reported as “* (*: P < 0.05)”.

For `O=C(O)CCCCSC[C@@H]1[C@@H](C#C[C@@H](O)C2CCCCC2)[C@H](O)C[C@H]1Cl` [Compound No. 32], the “Inhibition rate (%) (percent itch suppression)” value [1, 5] was 41.76% and the “Efficacy (significance, paired t-test)” value ([1]; concentration 0.00001%) was “** (**: P < 0.01)”.

With `CCCCC[C@H](O)/C=C/[C@H]1[C@H](O)CC(=O)[C@@H]1CCCCCCC(=O)O` [PGE1] the “transepidermal water loss (TEWL) compared to the solvent-applied control group” value (BALB/c male mice [2]) was “no significant difference from the control group” and the “transepidermal water loss (TEWL) compared to the control group” value (BALB/c male mice [3]) was “significant decrease in TEWL”.

`CCCCC[C@H](O)/C=C/[C@@H]1[C@@H](C/C=C\CCCC(=O)O)[C@@H](O)C[C@H]1O` [PGF2α] was tested, and the “transepidermal water loss (TEWL) compared to the solvent-applied control group” value (BALB/c male mice [2]) was “no significant difference from the control group” and the “transepidermal water loss (TEWL) compared to the control group” value (BALB/c male mice [3]) was “no significant difference from the control group”.

For `C=CC[C@@H]1/C=C(\C)C[C@H](C)C[C@H](OC)[C@H]2O[C@@](O)(C(=O)C(=O)N3CCCC[C@H]3C(=O)O[C@H](/C(C)=C/[C@@H]3CC[C@@H](O)[C@H](OC)C3)[C@H](C)[C@@H](O)CC1=O)[C@H](C)C[C@@H]2OC` [tacrolimus, reference compound], the “dermatitis score suppressing action compared to the vehicle group” value [4] was “significant dermatitis score suppressing action”.
